Ends that are not written are not given here.
Legend:
[1] = system: Staphylococcus aureus ATCC 35556; type: cell-based; conditions: highest concentration tested 15 μM
Experimental: (§1) Six different strains of bacteria were streaked on LB-Miller agar plates from a frozen glycerol stock derived from the original samples shipped from CGSC (Coli Genetic Stock Center, Yale University) or ATCC (American Type Culture Collection) (Escherichia coli D31 CGSC 5165 ([Burman, Nordstrom & Boman, 1968]), Staphylococcus aureus ATCC 35556. Pseudomonas aeruginosa PA-01 ATCC 47085, Acinetobacter baumannii ATCC 19606). For each of the strains a liquid overnight culture was prepared using a single colony into fresh LB broth and placed in a shaking incubator for ~ 18 hours at 37 C at 225 rpm. After the incubation period, a 1:200 dilution was made in fresh LB broth and then used for experimentation. Minimal Inhibitory Concentration (MIC) determinations were performed using mid-log phase bacteria diluted to 5 x 10^5 CFU/mL. Next, 90 μL of this diluted culture was then pipetted into a sterile 96-well plate that contains serially diluted aliquots of the peptide variants to consist of a total volume of 100 μL. This plate was then incubated for 18 hours at 37 C. Bacterial growth was determined by taking an OD600 measurement using a Spectramax M5 multimode plate reader post incubation. Minimal Bactericidal Concentration (MBC) was performed by taking 1 μL of the culture from the MIC plate and then pipetting it on to a fresh LB agar plate. After plating this culture, the plate was then incubated overnight at 37 C. MBC was determined by the growth or the lack of growth from each well on the agar plate.
(§2) The ability of L1 and the hydrophobic variants to act as antimicrobials was investigated using the Minimal Inhibitory Concentration (MIC) and Minimal Bactericidal Concentration (MBC) assays as previously described ([Wiegand, Hilpert & Hancock, 2008]). The MIC is determined as the lowest concentration of peptide required to inhibit bacterial growth in solution, while the MBC is the lowest concentration required to act in a bactericidal mechanism (as opposed to bacteriostatic) and is determined by plating MIC cultures on antimicrobial-free media. Peptides were screened against E. coli, S. aureus, A. baumannii, P. aeruginosa, B. subtilis, and K. pneumoniae.

K. pneumoniae = type: cell-based; conditions: highest concentration tested 15 μM
Experimental: as §1, §2

[2] = system: Escherichia coli D31 CGSC 5165; type: cell-based; conditions: highest concentration tested 15 μM
Experimental: as §1, §2

[3] = system: Acinetobacter baumannii ATCC 19606; type: cell-based; conditions: highest concentration tested 15 μM
Experimental: as §1, §2

B. subtilis = type: cell-based; conditions: highest concentration tested 15 μM
Experimental: as §1, §2

[4] = system: Pseudomonas aeruginosa PA-01 ATCC 47085; type: cell-based; conditions: highest concentration tested 15 μM
Experimental: as §1, §2

[5] = system: Gram-positive and Gram-negative strains; experiment: Antimicrobial activity over the MIC panel; type: cell-based; conditions: highest concentration tested 15μM
Experimental: as §1, §2

[6] = Acrylamide quenching of Trp fluorescence in absence and presence of lipid vesicles; type: physicochemical; conditions: 2 μM peptide in PBS pH 7.0, λex 295 nm, λem 340, average of three replicates ± SD; for Acrylamide quenching Ksv, PCPG: 3:1 DOPC:DOPG vesicles; for Acrylamide quenching Ksv, PCPG / Acrylamide quenching Ksv, PEPG / Acrylamide quenching Ksv, PC / Acrylamide quenching Ksv, PC/Chol: 250 μM lipid; for Acrylamide quenching Ksv, PEPG: 3:1 POPE:DOPG vesicles; for Acrylamide quenching Ksv, PC: DOPC vesicles; for Acrylamide quenching Ksv, PC/Chol: DOPC:Cholesterol vesicles; for Acrylamide quenching Ksv, PBS: no lipid vesicles
Experimental: To form small unilamellar vesicles (SUVs) sonication or ethanol dilution methods were implemented ([Caputo & London, 2019]). In all cases, lipid vesicle preparation was the same. Depending on the lipid composition, appropriate volumes of lipids in chloroform were mixed in a glass tube and then allowed to dry under N2 gas for 15 minutes. The lipid films were then placed in a vacuum desiccator and allowed to dry further under a vacuum for 1 hour. For vesicles formed through ethanol dilution methods, 10 μL of pure ethanol was added to the film, and then vortex until the dissipation of the film. While continuing to vortex, the appropriate amount of PBS was added. For vesicles formed using the method of sonication, PBS was added directly to the tube while being vortexed to create multilamellar vesicles (MLVs). The MLV suspension was covered with parafilm and then placed in a high-powered bath sonicator (Avanti Lipids) and subjected to sonication for 20 minutes to create SUVs.
Acrylamide quenching was monitored by titration of samples with 10 μL aliquots of 4M acrylamide titrated into peptide samples prepared as described above. These samples contained either or [0.25] mM total lipid. After each addition of acrylamide, Trp fluorescence intensity was measured using λex = 295 nm and λem = 340. Corrections to the emission intensity were made for background subtraction, dilutions, and inner filter effects in the excitation path as described previously. The same method to calculate Ksv was used as above.
In order to gain more insight into the bilayer interactions, fluorescence quenching approaches were utilized. The peptides were exposed to the aqueous quencher acrylamide in solution or when bound to vesicles. […] Thus, peptide Trp exposure to the aqueous milieu can be gauged by the extent of quenching by acrylamide. Stern-Volmer quenching plots were created to analyze the data and Ksv (slopes of a linear fit to the data) are shown in Figure 4 and Table 2. […] In the case of L1L and L1I, there was a significant reduction in quenching between the solution (free) state of the peptide and when bound to anionic vesicles, but a much smaller reduction if any when interacting with zwitterionic vesicles. This is consistent with a more deeply buried Trp in anionic bilayers.

[7] = 1 μL of MIC plate culture on LB agar, overnight at 37 C
[8] = LB broth, 5 x 10^5 CFU/mL, 18 hours at 37 C, OD600

Sequence	MBC S. aureus [1, 7] [µM]	MIC S. aureus [1, 8] [µM]	MBC K. pneumoniae (K. pneumoniae; [7]) [µM]	MIC K. pneumoniae (K. pneumoniae; [8]) [µM]	MBC E. coli [2, 7] [µM]	MIC E. coli [2, 8] [µM]	MBC A. baumannii [3, 7] [µM]	MIC A. baumannii [3, 8] [µM]	MBC B. subtilis (B. subtilis; [7]) [µM]	MIC B. subtilis (B. subtilis; [8]) [µM]	MBC P. aeruginosa [4, 7] [µM]	MIC P. aeruginosa [4, 8] [µM]	Antimicrobial activity (summary of MIC results) [5]	Acrylamide quenching Ksv, PCPG [6] [M⁻¹]	Acrylamide quenching Ksv, PEPG [6] [M⁻¹]	Acrylamide quenching Ksv, PC [6] [M⁻¹]	Acrylamide quenching Ksv, PC/Chol [6] [M⁻¹]	Acrylamide quenching Ksv, PBS [6] [M⁻¹]
FFKEFWTKMKGAGKAFFGKFKGFF [L1F]	1.88	0.94	7.5	1.88	>15	0.94	0.938	0.47	1.88	1.88	>15	7.5	broad spectrum activity	2.06 ± 0.97	1.80 ± 0.77	1.57 ± 3.49	1.63 ± 0.20	4.18 ± 4.79
LLKELWTKMKGAGKALLGKLKGLL [L1L]													broad spectrum activity	3.51 ± 0.17	2.22 ± 4.04	4.08 ± 2.10	8.92 ± 0.94	4.26 ± 0.97
